Test results reported in US12329799B2, “Peptidyl inhibitors of calcineurin-NFAT interaction” (Ohio State Innovation Foundation, priority 2018, dated 2025).
Like-named read-outs stand apart in the source and are kept apart here. Blank lines part the entries; values can stand above or below the compound they belong to. Positions of bridges follow the written chain, without caps; N, C: chain ends. Non-standard residues stand in square brackets, D forms with d. Residues, ends and D or L forms follow the SMILES beside them. Chains are numbered I, II in the order given. *: point of attachment. FITC = O=C1OC2(c3ccc(O)cc3Oc3cc(O)ccc32)c2ccc(NC(=S)*)cc21; Benzoyl(2,3,4,5,6-F5) = O=C(c1c(F)c(F)c(F)c(F)c1F)*; Benzoyl(2,3-Cl2) = O=C(c1cccc(Cl)c1Cl)*; Phe(4-F) = N[C@@H](Cc1ccc(F)cc1)C(=O)O; 2Nal = N[C@@H](Cc1ccc2ccccc2c1)C(=O)O; Val(3-OH) = CC(C)(O)[C@H](N)C(=O)O; X4 = O=C(c1cc(F)c(F)c(F)c1F)*; Chg = N[C@H](C(=O)O)C1CCCCC1; Tle = CC(C)(C)[C@H](N)C(=O)O; X6 = O=C(c1ccc(Br)c(Cl)c1)*; X5 = Cc1ccc(C(=O)*)c(F)c1F; X1 = O=C(c1ccnc(Cl)c1Cl)*; AEEA = NCCOCCOCC(=O)O; βAla = NCCC(=O)O

Key:
[1] = Aqueous solubility (turbidity at 780 nm); format: physicochemical
Protocol: The peptide was serially diluted from a DMSO stock into PBS (pH 7.4) containing 5% DMSO and the optical density of the resulting solutions were measured at 780 nm.
Solubility. Peptides were diluted from a DMSO stock into PBS, pH 7.4 and then serially diluted in identical buffer to standardize DMSO concentration in clear, 96-well plates. The solutions were allowed to stand for 1 h at RT without mixing and then turbidity was measured at 780 nm using a Tecan Infinite M1000 plate reader.

Caco-2 cell monolayers = experiment: Caco-2 permeability assay; format: in vitro ADME
Protocol: Caco-2 permeability assay. To assay the permeability of test compounds by Caco-2 cell model, Caco-2 cells were cultured to confluency before being trypsinized and seeded onto filter transwell inserts at a density of 30,000 cells/well in DMEM medium. Cells were cultured in a humidified atmosphere with 5% CO2 at 37° C. After overnight attachment, cell medium was replaced with fresh medium at both apical and basolateral sides every other day. The cell monolayers are ready for the assay 20 days post seeding. […] The dosing solution at 10 μM was obtained by diluting 10 mM stock solution in HBSS medium (pH 7.4, 25 mM HEPES) freshly before the assay. Terfenadine (25 ng/mL) and Tolbutamide (50 ng/mL) were added into dosing solution as internal standards. […] The culture medium from either the basolateral side (plate B) or apical side (plate A) were aspirated and then rinsed with HBSS medium once. Afterwards, the dosing medium was added to either basolateral or apical side. Following the incubation, 100 microliter samples from both sides were harvested at time 0 and time 90 min. Samples were quenched with acetonitrile/methanol (1:1 v/v), centrifuged, and analyzed on a Shimadzu reversed-phase HPLC and Sciex API4500 Q trap instrument.
Permeability parameters were calculated using the following equations and shown in Table 10: Papp=(Conc.receiver,90 min*Volumereceiver)/(Time*Membrane Area*Conc.donor,0 min) Efflux Ratio=Papp[B to A]/Papp[A to B]

Serum stability assay = format: in vitro ADME; conditions: 37° C.
Protocol: Serum Stability Assay. Diluted human serum (25%) (H4522 human serum, Sigma) was centrifuged at 15,000 rpm for 10 min, and the supernatant was collected. A peptide stock solution was diluted into the supernatant to a final concentration of 5 μM and incubated at 37° C. At various time points (0-24 h), 200-μL aliquots were withdrawn and mixed with 100 μL of 15% trichloroacetic acid and incubated at 4° C. overnight. The final mixture was centrifuged at 15,000 rpm for 10 min in a microcentrifuge, and the supernatant was analyzed by reversed-phase HPLC equipped with a C18 column. The amount of remaining peptide (%) was determined by integrating the area underneath the peptide peak (monitored at 214 nm) and comparing with that from the peptide at time 0.

Calcineurin (GST-CN) = biological target: T1, Calcineurin (GST-CN) (Homo sapiens, UniProt Q08209); experiment: Direct binding of FITC-labeled peptides to CN by fluorescence anisotropy/polarization; conditions: for Kd: Table 5, acyl-ZIZITGPHEEYK(FITC)-NH2 peptides, FA
T1 construct: made in house; host or cells: E. coli BL21
Protocol: To facilitate concentration determination and binding analysis by fluorescence anisotropy (FA), a dipeptide Tyr-Lys was added to the C-terminus of ZIZIT (SEQ ID NO:1) and the lysine side chain was labeled with fluorescein isothiocyanate (FITC). The resulting peptide,
Fluorescence Polarization. Fluorescence polarization (FP) experiments were carried out to measure binding affinity in both direct and competitive binding experiments using GST-CN and peptides prepared as mentioned previously. For direct binding, 50 nM FITC-labeled peptide was prepared in PBS, pH 7.4 containing 5 mM DTT and 0.01% Triton-X100 and then added to GST-CN diluted in PBS containing 0.01% Triton-X100. Solutions were incubated for 1 h at RT with gentle mixing and then pipetted into black 384-well microplates. Fluorescence polarization was measured on a TECAN Infinite M1000 plate reader and titration curves were fitted using both KaelidaGraph v 3.6 and GraphPad PRISM to the equation:
[formula] • where FP is the measured fluorescence polarization, Amin is the minimum FP value, Amax is the maximum FP signal, Qb is the quantum yield of the bound fluorophore, Qf is the quantum yield of the free fluorophore, L is the ligand concentration, KD is the dissociation constant and x is the protein concentration.

T1 sequence (Q08209 2-347 limits assumed): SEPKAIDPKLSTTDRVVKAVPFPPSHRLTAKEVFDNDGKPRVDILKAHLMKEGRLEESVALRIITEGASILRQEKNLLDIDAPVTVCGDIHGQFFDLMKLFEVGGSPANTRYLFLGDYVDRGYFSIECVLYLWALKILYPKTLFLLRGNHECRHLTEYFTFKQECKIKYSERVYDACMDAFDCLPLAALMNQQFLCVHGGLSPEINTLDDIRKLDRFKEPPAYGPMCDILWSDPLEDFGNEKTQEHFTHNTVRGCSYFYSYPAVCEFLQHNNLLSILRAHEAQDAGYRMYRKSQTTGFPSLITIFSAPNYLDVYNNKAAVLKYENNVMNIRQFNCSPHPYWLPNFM

- aqueous solubility (qualitative) [1]: lower solubility
Compound: CC[C@H](C)[C@H](NC(=O)[C@@H](NC(=O)c1cccc(Cl)c1Cl)C(C)(C)C)C(=O)N[C@H](C(=O)N[C@H](C(=O)N[C@H](C(=O)N[C@@H](CCC(N)=O)C(=O)N[C@@H](Cc1c[nH]cn1)C(=O)N[C@H](CC(C)C)C(=O)N[C@@H](Cc1c[nH]cn1)C(=O)NCCC(=O)N[C@@H](CCCCNC(=S)Nc1ccc2c(c1)C(=O)OC21c2ccc(O)cc2Oc2cc(O)ccc21)C(N)=O)[C@@H](C)O)[C@@H](C)CC)C(C)(C)C [Peptide 15, Dcb-ZIZIT-Gln-His-leu-His-βAla-Lys (FITC)] ({Benzoyl(2,3-Cl2)}-[Tle]I[Tle]ITQH[dL]H[βAla]K(FITC)-NH2; C-terminus assumed)

- Pgp Substrate (Caco-2 cell monolayers): Yes
Compound: CC(C)CN(C[C@@H](O)[C@H](Cc1ccccc1)NC(=O)O[C@H]1CCOC1)S(=O)(=O)c1ccc(N)cc1 [Amprenavir, reference compound]

Compound: VIVIT: VIVIT (SEQ ID NO: 2) peptide, a CNBM blocking NFAT (Description: CN binding motif)
- half-life in human serum (Serum stability assay): ~1 h
- time to complete degradation in human serum (Serum stability assay): ≤ 6 h

- Kd (Calcineurin (GST-CN); read-out: KD): 32 to 189 nM
Compound: CC[C@H](C)[C@H](NC(=O)[C@@H](NC(=O)c1ccc(Br)c(Cl)c1)C(C)(C)C)C(=O)N[C@H](C(=O)N[C@H](C(=O)N[C@H](C(=O)NCC(=O)N1CCC[C@H]1C(=O)N[C@@H](Cc1c[nH]cn1)C(=O)N[C@@H](CCC(=O)O)C(=O)N[C@@H](CCC(=O)O)C(=O)N[C@@H](Cc1ccc(O)cc1)C(=O)N[C@@H](CCCCNC(=S)Nc1ccc2c(c1)C(=O)OC21c2ccc(O)cc2Oc2cc(O)ccc21)C(N)=O)[C@@H](C)O)[C@@H](C)CC)C(C)(C)C [Peptide 10] (X6-[Tle]I[Tle]ITGPHEEYK(FITC)-NH2)

- solubility relative to CNI103 [1]: less soluble
Compound: CC[C@H](C)[C@H](NC(=O)[C@@H](NC(=O)[C@@H](NC(=O)[C@@H](NC(=O)c1ccnc(Cl)c1Cl)C(C)(C)C)C1CCCCC1)C(C)(C)O)C(=O)N[C@H](C(=O)N[C@@H](CCC(N)=O)C(=O)N[C@@H](Cc1c[nH]cn1)C(=O)N[C@H](CC(C)C)C(=O)N[C@@H](CO)C(=O)NCCC(=O)N[C@@H](CCCCNC(=O)CC[C@@H]1NC(=O)[C@@H](CCCNC(=N)N)NC(=O)[C@H](CCCNC(=N)N)NC(=O)[C@@H](CCCNC(=N)N)NC(=O)[C@H](CCCNC(=N)N)NC(=O)[C@H](Cc2ccc3ccccc3c2)NC(=O)[C@@H](Cc2ccccc2)NC1=O)C(N)=O)[C@@H](C)O [Compound 44, (DCNA)-Tle-Chg-Bhv-Ile-Thr-Gln-His-(D-Leu)-Ser-βAla-Lys{[cyclo-(Gln-(D-Arg)-Arg-(D-Arg)-Arg-(2-Nal)-(D-Phe)]}-NH2] (I: X1-[Tle][Chg][Val(3-OH)]ITQH[dL]S[βAla]K-NH2 / II: cyclo([2Nal]R[dR]R[dR]E[dF]); amide I:11-II:6 (inferred); ring closure inferred)

Compound: CC[C@H](C)[C@H](NC(=O)[C@@H](NC(=O)c1cccc(Cl)c1Cl)C(C)(C)C)C(=O)N[C@H](C(=O)N[C@H](C(=O)N[C@H](C(=O)NCC(=O)N1CCC[C@H]1C(=O)N[C@@H](Cc1c[nH]cn1)C(=O)N[C@@H](CCC(=O)O)C(=O)N[C@@H](CCC(=O)O)C(=O)N[C@@H](Cc1ccc(O)cc1)C(=O)N[C@@H](CCCCNC(=S)Nc1ccc2c(c1)C(=O)OC21c2ccc(O)cc2Oc2cc(O)ccc21)C(N)=O)[C@@H](C)O)[C@@H](C)CC)C(C)(C)C [Peptide 9] ({Benzoyl(2,3-Cl2)}-[Tle]I[Tle]ITGPHEEYK(FITC)-NH2)
- Kd (Calcineurin (GST-CN); KD (nM)): 32 to 189 nM

- aqueous solubility (qualitative) [1]: good aqueous solubility
Compound: CC[C@H](C)[C@H](NC(=O)[C@@H](NC(=O)c1cccc(Cl)c1Cl)C(C)(C)C)C(=O)N[C@H](C(=O)N[C@H](C(=O)N[C@H](C(=O)N[C@@H](Cc1ccc(O)cc1)C(=O)N[C@H](CCC(=O)O)C(=O)N[C@@H](Cc1ccc(F)cc1)C(=O)NCC(=O)NCCC(=O)N[C@@H](CCCCNC(=S)Nc1ccc2c(c1)C(=O)OC21c2ccc(O)cc2Oc2cc(O)ccc21)C(N)=O)[C@@H](C)O)[C@@H](C)CC)C(C)(C)C [Peptide 13, Dcb-ZIZIT-Tyr-glu-Fpa-Gly-βAla-Lys (FITC)] ({Benzoyl(2,3-Cl2)}-[Tle]I[Tle]ITY[dE][Phe(4-F)]G[βAla]K(FITC)-NH2; C-terminus assumed)

- Kd (Calcineurin (GST-CN); read-out: KD): 32 to 189 nM
Compound: CC[C@H](C)[C@H](NC(=O)[C@@H](NC(=O)c1c(F)c(F)c(F)c(F)c1F)C(C)(C)C)C(=O)N[C@H](C(=O)N[C@H](C(=O)N[C@H](C(=O)NCC(=O)N1CCC[C@H]1C(=O)N[C@@H](Cc1c[nH]cn1)C(=O)N[C@@H](CCC(=O)O)C(=O)N[C@@H](CCC(=O)O)C(=O)N[C@@H](Cc1ccc(O)cc1)C(=O)N[C@@H](CCCCNC(=S)Nc1ccc2c(c1)C(=O)OC21c2ccc(O)cc2Oc2cc(O)ccc21)C(N)=O)[C@@H](C)O)[C@@H](C)CC)C(C)(C)C [Peptide 11] ({Benzoyl(2,3,4,5,6-F5)}-[Tle]I[Tle]ITGPHEEYK(FITC)-NH2)

- Kd (Calcineurin (GST-CN); read-out: KD): 32 to 189 nM
Compound: CC[C@H](C)[C@H](NC(=O)[C@@H](NC(=O)c1ccc(C)c(F)c1F)C(C)(C)C)C(=O)N[C@H](C(=O)N[C@H](C(=O)N[C@H](C(=O)NCC(=O)N1CCC[C@H]1C(=O)N[C@@H](Cc1c[nH]cn1)C(=O)N[C@@H](CCC(=O)O)C(=O)N[C@@H](CCC(=O)O)C(=O)N[C@@H](Cc1ccc(O)cc1)C(=O)N[C@@H](CCCCNC(=S)Nc1ccc2c(c1)C(=O)OC21c2ccc(O)cc2Oc2cc(O)ccc21)C(N)=O)[C@@H](C)O)[C@@H](C)CC)C(C)(C)C [Peptide 8] (X5-[Tle]I[Tle]ITGPHEEYK(FITC)-NH2)

- decrease in binding affinity on removal of C-terminal pentapeptide (GPHEE) (Calcineurin (GST-CN); peptide 12 versus peptide 9): 17 fold
Compound: CC[C@H](C)[C@H](NC(=O)[C@@H](NC(=O)c1cccc(Cl)c1Cl)C(C)(C)C)C(=O)N[C@H](C(=O)N[C@H](C(=O)N[C@H](C(=O)NCCOCCOCC(=O)N[C@@H](CCCCNC(=S)Nc1ccc2c(c1)C(=O)OC21c2ccc(O)cc2Oc2cc(O)ccc21)C(N)=O)[C@@H](C)O)[C@@H](C)CC)C(C)(C)C [Peptide 12, Dcb-ZIZIT-miniPEG-Lys (FITC)] ({Benzoyl(2,3-Cl2)}-[Tle]I[Tle]IT[AEEA]K(FITC)-NH2; C-terminus assumed)

Compound: CC[C@H](C)[C@H](NC(=O)[C@@H](NC(=O)c1cc(F)c(F)c(F)c1F)C(C)(C)C)C(=O)N[C@H](C(=O)N[C@H](C(=O)N[C@H](C(=O)NCC(=O)N1CCC[C@H]1C(=O)N[C@@H](Cc1c[nH]cn1)C(=O)N[C@@H](CCC(=O)O)C(=O)N[C@@H](CCC(=O)O)C(=O)N[C@@H](Cc1ccc(O)cc1)C(=O)N[C@@H](CCCCNC(=S)Nc1ccc2c(c1)C(=O)OC21c2ccc(O)cc2Oc2cc(O)ccc21)C(N)=O)[C@@H](C)O)[C@@H](C)CC)C(C)(C)C [Peptide 7] (X4-[Tle]I[Tle]ITGPHEEYK(FITC)-NH2)
- Kd (Calcineurin (GST-CN); KD (nM)): 32 to 189 nM

- aqueous solubility (qualitative) [1]: good aqueous solubility
Compound: CC[C@H](C)[C@H](NC(=O)[C@@H](NC(=O)c1cccc(Cl)c1Cl)C(C)(C)C)C(=O)N[C@H](C(=O)N[C@H](C(=O)N[C@H](C(=O)N[C@@H](CCC(N)=O)C(=O)N[C@@H](Cc1c[nH]cn1)C(=O)N[C@H](CC(C)C)C(=O)N[C@@H](CO)C(=O)NCCC(=O)N[C@@H](CCCCNC(=S)Nc1ccc2c(c1)C(=O)OC21c2ccc(O)cc2Oc2cc(O)ccc21)C(N)=O)[C@@H](C)O)[C@@H](C)CC)C(C)(C)C [Peptide 14, Dcb-ZIZIT-Gln-His-leu-Ser-βAla-Lys (FITC)] ({Benzoyl(2,3-Cl2)}-[Tle]I[Tle]ITQH[dL]S[βAla]K(FITC)-NH2; C-terminus assumed)
